Target: T1, PDE9A2 (Homo sapiens, UniProt O76083)
T1 construct: purchased Reaction Biology Corporation, Malvern, Pa
Test: Phosphodiesterase Enzyme Screening Assay, PDE9A2 (Caliper LabChip mobility-shift)
Assay type: biochemical
Conditions: 10 concentrations, 4.0 μM cGMP substrate, 1 hour at R.T.; read-out: Band (PDE9A2 IC50)
Text: Compounds of the invention were screened against PDE1A, PDE1B, PDE2A, PDE3A, PDE3B, PDE4A1A, PDE4B1, PDE4D3, PDE5A1, PDE6C, PDE7A, PDE8A1, PDE9A2, PDE10A2 AND PDE11A isoforms of the phosphodiesterase enzyme to determine activity and overall selectivity through comparative analysis. The assay generally consists of testing the compounds of the invention at 10 concentrations. Where 8-methoxy-IBMX and Zaprinast were used as reference inhibitors.
The phosphodiesterase enzyme isoforms were obtained from a commercial retailer (Reaction Biology Corporation, Malvern, Pa.) for use in the instant screening assay.
The analysis was completed using the Caliper LabChip 3000 and a 12-sipper LabChip. LabChip assays are separations-based, meaning that the product and substrate are electrophoretically separated, thereby minimizing interferences and yielding the highest data quality available on any screening platform. Z′ factors for both the EZ Reader and LC3000 enzymatic assays are routinely in the 0.8 to 0.9 range. High Z′ values, few false positives, few false negatives and analytical quality reproducibility are the reasons cited for the increasing reliance on the LabChip assays.
The off-chip incubation mobility-shift phosphodiesterase assay uses a microfluidic chip to measure the conversion of a fluorescent cyclic AMP substrate to a 5′-AMP product, or a cyclic GMP substrate to a 5′-GMP product. The reaction mixture, from a microtiter plate well, is introduced through a capillary sipper onto the chip, where the fluorescent substrate and product are separated by electrophoresis and detected via laser-induced fluorescence. […] The precision of microfluidics allows researchers to detect subtle interactions between drug candidates and therapeutic targets. The technology is able to detect both strong and weak inhibitors with high accuracy, and routinely identifies drug candidates that conventional techniques miss.
Reactions were carried out in 100 mM HEPES (pH 7.5), 5 mM MgCl2, 1 mM DTT, 0.003% Brij, 4.0 μM cGMP substrate. The reaction was started by addition of cGMP or cAMP and incubated for 1 hour at R.T. The reaction was terminated by the addition of stop buffer containing 100 mM HEPES (pH 7.5), 15 mM EDTA, 0.015% Brij-35, 5% DMSO. Cyclic AMP/GMP substrate and 5′-AMP/5′-GMP product were separated by charge using electrophoretic mobility shift. Product formed was compared to control wells to determine inhibition or enhancement of enzyme activity.
One or more reference compounds, depending on phosphodiesterase isoform, selected from 8-methoxy-IBMX, Zaprinast, Trequinsin, Pentoxifyline, Rolipram, and Vinpocetine, Dipyridamole, and BRL-50481 were run alongside client samples to ensure data quality. The resulting IC50 is compared against the historical average and must be within 3-fold of this average.
Data points were averages of quadruplicate wells and error bars represented the SEM for each point. IC50s were determined using GraphPad Prism Version 5.01 and the log (inhibitor) vs. response variable slope curve fit.

T1 sequence (O76083 1-533 isoform O76083-2): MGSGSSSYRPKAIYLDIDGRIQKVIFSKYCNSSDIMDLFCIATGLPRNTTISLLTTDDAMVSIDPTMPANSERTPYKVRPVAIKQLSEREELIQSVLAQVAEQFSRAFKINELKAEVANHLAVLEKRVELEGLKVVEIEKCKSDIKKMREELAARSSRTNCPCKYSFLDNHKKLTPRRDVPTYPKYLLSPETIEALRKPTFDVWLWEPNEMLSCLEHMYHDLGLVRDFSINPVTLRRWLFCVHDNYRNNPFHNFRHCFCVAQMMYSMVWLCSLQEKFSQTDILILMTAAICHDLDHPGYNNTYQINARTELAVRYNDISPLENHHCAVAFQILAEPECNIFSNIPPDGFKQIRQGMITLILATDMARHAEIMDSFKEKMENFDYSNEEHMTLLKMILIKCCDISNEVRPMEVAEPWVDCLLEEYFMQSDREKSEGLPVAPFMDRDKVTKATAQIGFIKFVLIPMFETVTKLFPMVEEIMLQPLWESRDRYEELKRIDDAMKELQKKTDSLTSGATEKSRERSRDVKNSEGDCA

| Structure (SMILES) | IC50 |
| --- | --- |
| C[C@@H]1CN(Cc2ncccn2)C[C@H]1c1nn2c(C3CCC(F)(F)CC3)ncc2c(=O)[nH]1 (single isomer, unassigned) [(+)-7-(4,4-difluorocyclohexyl)-2-((3,4-trans)-4-methyl-1-(pyrimidin-2-ylmethyl)pyrrolidin-3-yl)imidazo[5,1-f][1,2,4]triazin-4(3H)-one] | < 1000 nM |
| C[C@@H]1CN(Cc2cccc(F)c2)C[C@H]1c1nn2c(C3CCOCC3)ncc2c(=O)[nH]1 (single isomer, unassigned) [(−)-2-((3,4-trans)-1-(3-fluorobenzyl)-4-methylpyrrolidin-3-yl)-7-(tetrahydro-2H-pyran-4-yl)imidazo[5,1-f][1,2,4]triazin-4(3H)-one] | < 1000 nM |
| C[C@@H]1CN(Cc2cn3ncccc3n2)C[C@H]1c1nn2c(C3CCOCC3)ncc2c(=O)[nH]1 (single isomer, unassigned) [(−)-2-((3,4-trans)-1-(imidazo[1,2-b]pyridazin-2-ylmethyl)-4-] [(−)-2-((3,4-trans)-1-(imidazo[1,2-b]pyridazin-2-ylmethyl)-4-methylpyrrolidin-3-yl)-7-(tetrahydro-2H-pyran-4-yl)imidazo[5,1-f][1,2,4]triazin-4(3H)-one] | < 1000 nM |
| C[C@@H]1CN(Cc2ccc3nccn3n2)C[C@H]1c1nn2c(C3CCOCC3)ncc2c(=O)[nH]1 (single isomer, unassigned) [(−)-2-((3,4-trans)-1-(imidazo[1,2-b]pyridazin-6-ylmethyl)-4-methylpyrrolidin-3-yl)-7-(tetrahydro-2H-pyran-4-yl)imidazo[5,1-f][1,2,4]triazin-4(3H)-one] | < 1000 nM |
| CCS(=O)(=O)N1CCC(c2ncc3c(=O)[nH]c([C@@H]4CN(Cc5ccccc5)C[C@H]4C)nn23)CC1 (single isomer, unassigned) [(−)-2-((3,4-trans)-1-benzyl-4-methylpyrrolidin-3-yl)-7-(1-(ethylsulfonyl)piperidin-4-yl)imidazo[5,1-f][1,2,4]triazin-4(3H)-one] | > 10000 nM |
| C[C@@H]1CN(Cc2ccccc2)C[C@H]1c1nn2c(C(C)(C)O)ncc2c(=O)[nH]1 (single isomer, unassigned) [(−)-2-((3,4-trans)-1-benzyl-4-methylpyrrolidin-3-yl)-7-(2-hydroxypropan-2-yl)imidazo[5,1-f][1,2,4]triazin-4(3H)-one] | > 10000 nM |
| C[C@@H]1CN(Cc2ccccc2)C[C@H]1c1nn2c(C3CCC(F)(F)CC3)ncc2c(=O)[nH]1 (single isomer, unassigned) [(−)-2-((3,4-trans)-1-benzyl-4-methylpyrrolidin-3-yl)-7-(4,4-difluorocyclohexyl)imidazo[5,1-f][1,2,4]triazin-4(3H)-one] | < 1000 nM |
| Cc1cc(F)ccc1-c1ncc2c(=O)[nH]c([C@@H]3CN(Cc4ccccc4)C[C@H]3C)nn12 (single isomer, unassigned) [(−)-2-((3,4-trans)-1-benzyl-4-methylpyrrolidin-3-yl)-7-(4-fluoro-2-methylphenyl)imidazo[5,1-f][1,2,4]triazin-4(3H)-one] | > 10000 nM |
| Cc1ccc(Cl)cc1-c1ncc2c(=O)[nH]c([C@@H]3CN(Cc4ccccc4)C[C@H]3C)nn12 (single isomer, unassigned) [(−)-2-((3,4-trans)-1-benzyl-4-methylpyrrolidin-3-yl)-7-(5-chloro-2-methylphenyl)imidazo[5,1-f][1,2,4]triazin-4(3H)-one] | 1000 to 10000 nM |
| C[C@@H]1CN(Cc2ccccc2)C[C@H]1c1nn2c(-c3ccoc3)ncc2c(=O)[nH]1 (single isomer, unassigned) [(−)-2-((3,4-trans)-1-benzyl-4-methylpyrrolidin-3-yl)-7-(furan-3-yl)imidazo[5,1-f][1,2,4]triazin-4(3H)-one] | 1000 to 10000 nM |
| C[C@@H]1CN(Cc2cnccn2)C[C@H]1c1nn2c(C3CCOCC3)ncc2c(=O)[nH]1 (single isomer, unassigned) [(−)-2-((3,4-trans)-4-methyl-1-(pyrazin-2-ylmethyl)pyrrolidin-3-yl)-7-(tetrahydro-2H-pyran-4-yl)imidazo[5,1-f][1,2,4]triazin-4(3H)-one] | 1000 to 10000 nM |
| Cc1ccccc1-c1ncc2c(=O)[nH]c([C@@H]3CN(Cc4ncccn4)C[C@H]3C)nn12 (single isomer, unassigned) [(−)-2-((3,4-trans)-4-methyl-1-(pyrimidin-2-ylmethyl)pyrrolidin-3-yl)-7-(o-tolyl)imidazo[5,1-f][1,2,4]triazin-4(3H)-one] | 1000 to 10000 nM |
| C[C@@H]1CN(Cc2ncccn2)C[C@H]1c1nn2c(C3CCOCC3)ncc2c(=O)[nH]1 (single isomer, unassigned) [(−)-2-((3,4-trans)-4-methyl-1-(pyrimidin-2-ylmethyl)pyrrolidin-3-yl)-7-(tetrahydro-2H-pyran-4-yl)imidazo[5,1-f][1,2,4]triazin-4(3H)-one] | > 10000 nM |
| C[C@@H]1CN(Cc2ncc3ccccc3n2)C[C@H]1c1nn2c(C3CCOCC3)ncc2c(=O)[nH]1 (single isomer, unassigned) [(−)-2-((3,4-trans)-4-methyl-1-(quinazolin-2-ylmethyl)pyrroli] [(−)-2-((3,4-trans)-4-methyl-1-(quinazolin-2-ylmethyl)pyrrolidin-3-yl)-7-(tetrahydro-2H-pyran-4-yl)imidazo[5,1-f][1,2,4]triazin-4(3H)-one] | < 1000 nM |
| C[C@@H]1CN(Cc2ccc3ccccc3n2)C[C@H]1c1nn2c(C3CCOCC3)ncc2c(=O)[nH]1 (single isomer, unassigned) [(−)-2-((3,4-trans)-4-methyl-1-(quinolin-2-ylmethyl)pyrrolidi] [(−)-2-((3,4-trans)-4-methyl-1-(quinolin-2-ylmethyl)pyrrolidin-3-yl)-7-(tetrahydro-2H-pyran-4-yl)imidazo[5,1-f][1,2,4]triazin-4(3H)-one] | < 1000 nM |
| CCS(=O)(=O)N1CCC(c2ncc3c(=O)[nH]c([C@@H]4CN(Cc5ncccn5)C[C@H]4C)nn23)CC1 (single isomer, unassigned) [(−)-7-(1-(ethylsulfonyl)piperidin-4-yl)-2-((3,4-trans)-4-methyl-1-(pyrimidin-2-ylmethyl)pyrrolidin-3-yl)imidazo[5,1-f][1,2,4]triazin-4(3H)-one] | > 10000 nM |
| CC(=O)N1CCC(c2ncc3c(=O)[nH]c([C@@H]4CN(Cc5ccccc5)C[C@H]4C)nn23)CC1 (single isomer, unassigned) [(−)-7-(1-acetylpiperidin-4-yl)-2-((3,4-trans)-1-benzyl-4-methylpyrrolidin-3-yl)imidazo[5,1-f][1,2,4]triazin-4(3H)-one] | > 10000 nM |
| CC(=O)N1CCC(c2ncc3c(=O)[nH]c([C@@H]4CN(Cc5ncccn5)C[C@H]4C)nn23)CC1 (single isomer, unassigned) [(−)-7-(1-acetylpiperidin-4-yl)-2-((3,4-trans)-4-methyl-1-(pyrimidin-2-ylmethyl)pyrrolidin-3-yl)imidazo[5,1-f][1,2,4]triazin-4(3H)-one] | > 10000 nM |
| Cc1cc(F)ccc1-c1ncc2c(=O)[nH]c([C@@H]3CN(Cc4ncccn4)C[C@H]3C)nn12 (single isomer, unassigned) [(−)-7-(4-fluoro-2-methylphenyl)-2-((3,4-trans)-4-methyl-1-(pyrimidin-2-ylmethyl)pyrrolidin-3-yl)imidazo[5,1-f][1,2,4]triazin-4(3H)-one] | < 1000 nM |
| CC1CN([C@@H](C)c2ccccc2)CC1c1nn2c(C3CCOCC3)ncc2c(=O)[nH]1 (single isomer, unassigned; (+)) | < 1000 nM |
| CC1CN(Cc2ccccc2)CC1c1nn2c(C34CC5CC(CC(C5)C3)C4)ncc2c(=O)[nH]1 (single isomer, unassigned; (+)) | < 1000 nM |
| CC1CN(Cc2ncccn2)CC1c1nn2c(C34CC5CC(CC(C5)C3)C4)ncc2c(=O)[nH]1 (single isomer, unassigned; (+)) | < 1000 nM |
| CC1CN([C@H](C)c2ccccc2)CC1c1nn2c(C3CCOCC3)ncc2c(=O)[nH]1 (single isomer, unassigned; (-)) | < 1000 nM |
| CC1CN(Cc2ccccc2)CC1c1nn2c(C34CC5CC(CC(C5)C3)C4)ncc2c(=O)[nH]1 (single isomer, unassigned; (-)) | > 10000 nM |

From patent publication US9540380B2, “Imidazotriazinone compounds” (Ironwood Pharmaceuticals, Inc., priority 2010, dated 2017)
